# Measured values reported in PubChem BioAssay (NCI).
#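 Results reflect a 48-hour exposure of cells in 96-well plates to compound at five concentrations. At the TGI there is no net growth.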
# Legend:
# Experiment in all cases: NCI anticancer screen, dose series, 48 h
# 786-0 renal = tested on: 786-0 renal
# A498 renal = tested on: A498 renal
# A549 NSCLC = tested on: A549 NSCLC
# ACHN renal = tested on: ACHN renal
# BT-549 breast = tested on: BT-549 breast
# CAKI-1 renal = tested on: CAKI-1 renal
# CCRF-CEM leukemia = tested on: CCRF-CEM leukemia
# COLO 205 colon = tested on: COLO 205 colon
# DU-145 prostate = tested on: DU-145 prostate
# EKVX NSCLC = tested on: EKVX NSCLC
# HCC-2998 colon = tested on: HCC-2998 colon
# HCT-116 colon = tested on: HCT-116 colon
# HCT-15 colon = tested on: HCT-15 colon
# HL-60(TB) leukemia = tested on: HL-60(TB) leukemia
# HOP-62 NSCLC = tested on: HOP-62 NSCLC
# HS 578T breast = tested on: HS 578T breast
# HT29 colon = tested on: HT29 colon
# IGROV1 ovarian = tested on: IGROV1 ovarian
# K-562 leukemia = tested on: K-562 leukemia
# KM12 colon = tested on: KM12 colon
# LOX IMVI melanoma = tested on: LOX IMVI melanoma
# M14 melanoma = tested on: M14 melanoma
# MALME-3M melanoma = tested on: MALME-3M melanoma
# MCF7 breast = tested on: MCF7 breast
# MDA-MB-231 breast = tested on: MDA-MB-231 breast
# MDA-MB-435 = tested on: MDA-MB-435
# MDA-N = tested on: MDA-N
# MOLT-4 leukemia = tested on: MOLT-4 leukemia
# NCI-H226 lung = tested on: NCI-H226 lung
# NCI-H23 lung = tested on: NCI-H23 lung
# NCI-H460 lung = tested on: NCI-H460 lung
# NCI-H522 lung = tested on: NCI-H522 lung
# NCI/ADR-RES ovarian = tested on: NCI/ADR-RES ovarian
# OVCAR-3 ovarian = tested on: OVCAR-3 ovarian
# OVCAR-5 ovarian = tested on: OVCAR-5 ovarian
# OVCAR-8 ovarian = tested on: OVCAR-8 ovarian
# PC-3 prostate = tested on: PC-3 prostate
# RPMI-8226 leukemia = tested on: RPMI-8226 leukemia
# SF-268 CNS = tested on: SF-268 CNS
# SF-295 CNS = tested on: SF-295 CNS
# SF-539 CNS = tested on: SF-539 CNS
# SK-MEL-2 melanoma = tested on: SK-MEL-2 melanoma
# SK-MEL-28 melanoma = tested on: SK-MEL-28 melanoma
# SK-MEL-5 melanoma = tested on: SK-MEL-5 melanoma
# SK-OV-3 ovarian = tested on: SK-OV-3 ovarian
# SN12C renal = tested on: SN12C renal
# SNB-19 CNS = tested on: SNB-19 CNS
# SNB-75 CNS = tested on: SNB-75 CNS
# SR leukemia = tested on: SR leukemia
# SW-620 colon = tested on: SW-620 colon
# T-47D breast = tested on: T-47D breast
# TK-10 renal = tested on: TK-10 renal
# U251 CNS = tested on: U251 CNS
# UACC-257 melanoma = tested on: UACC-257 melanoma
# UACC-62 melanoma = tested on: UACC-62 melanoma
# UO-31 renal = tested on: UO-31 renal
# HOP-92 NSCLC = tested on: HOP-92 NSCLC
# OVCAR-4 ovarian = tested on: OVCAR-4 ovarian
# RXF 393 renal = tested on: RXF 393 renal
structure (smiles),measurement,setting,value
CN1CC2=C(NC(=S)NC2c2ccccc2)/C(=C/c2ccccc2)C1 (configuration not stated),TGI,786-0 renal,> 100 µM
same,TGI,A498 renal,> 100 µM
same,TGI,A549 NSCLC,> 100 µM
same,TGI,ACHN renal,> 100 µM
same,TGI,BT-549 breast,> 100 µM
same,TGI,CAKI-1 renal,> 100 µM
same,TGI,CCRF-CEM leukemia,> 100 µM
same,TGI,COLO 205 colon,> 100 µM
same,TGI,DU-145 prostate,> 100 µM
same,TGI,EKVX NSCLC,> 100 µM
same,TGI,HCC-2998 colon,> 100 µM
same,TGI,HCT-116 colon,63.3 µM
same,TGI,HCT-15 colon,> 100 µM
same,TGI,HL-60(TB) leukemia,> 10 µM
same,TGI,HOP-62 NSCLC,> 100 µM
same,TGI,HS 578T breast,> 100 µM
same,TGI,HT29 colon,71.7 µM
same,TGI,IGROV1 ovarian,> 100 µM
same,TGI,K-562 leukemia,> 100 µM
same,TGI,KM12 colon,68 µM
same,TGI,LOX IMVI melanoma,> 100 µM
same,TGI,M14 melanoma,56.6 µM
same,TGI,MALME-3M melanoma,> 100 µM
same,TGI,MCF7 breast,> 100 µM
same,TGI,MDA-MB-231 breast,> 10 µM
same,TGI,MDA-MB-435,> 100 µM
same,TGI,MDA-N,> 100 µM
same,TGI,MOLT-4 leukemia,44.7 µM
same,TGI,NCI-H226 lung,> 100 µM
same,TGI,NCI-H23 lung,> 100 µM
same,TGI,NCI-H460 lung,> 100 µM
same,TGI,NCI-H522 lung,> 100 µM
same,TGI,NCI/ADR-RES ovarian,> 100 µM
same,TGI,OVCAR-3 ovarian,> 100 µM
same,TGI,OVCAR-5 ovarian,> 100 µM
same,TGI,OVCAR-8 ovarian,> 10 µM
same,TGI,PC-3 prostate,> 100 µM
same,TGI,RPMI-8226 leukemia,> 100 µM
same,TGI,SF-268 CNS,> 100 µM
same,TGI,SF-295 CNS,> 100 µM
same,TGI,SF-539 CNS,> 100 µM
same,TGI,SK-MEL-2 melanoma,> 100 µM
same,TGI,SK-MEL-28 melanoma,94.3 µM
same,TGI,SK-MEL-5 melanoma,74.1 µM
same,TGI,SK-OV-3 ovarian,61.8 µM
same,TGI,SN12C renal,> 100 µM
same,TGI,SNB-19 CNS,> 100 µM
same,TGI,SNB-75 CNS,> 100 µM
same,TGI,SR leukemia,> 100 µM
same,TGI,SW-620 colon,> 100 µM
same,TGI,T-47D breast,> 100 µM
same,TGI,TK-10 renal,> 100 µM
same,TGI,U251 CNS,> 100 µM
same,TGI,UACC-257 melanoma,> 100 µM
same,TGI,UACC-62 melanoma,> 100 µM
same,TGI,UO-31 renal,> 100 µM
O=C(O)COc1cc(-c2ccccc2)nc2cc(F)ccc12,TGI,786-0 renal,> 100 µM
same,TGI,A498 renal,> 100 µM
same,TGI,A549 NSCLC,> 100 µM
same,TGI,ACHN renal,> 100 µM
same,TGI,BT-549 breast,> 100 µM
same,TGI,CAKI-1 renal,> 100 µM
same,TGI,CCRF-CEM leukemia,> 100 µM
same,TGI,COLO 205 colon,> 100 µM
same,TGI,DU-145 prostate,> 100 µM
same,TGI,EKVX NSCLC,> 100 µM
same,TGI,HCC-2998 colon,> 100 µM
same,TGI,HCT-116 colon,> 100 µM
same,TGI,HCT-15 colon,> 100 µM
same,TGI,HL-60(TB) leukemia,> 100 µM
same,TGI,HOP-62 NSCLC,> 100 µM
same,TGI,HOP-92 NSCLC,> 100 µM
same,TGI,HS 578T breast,> 100 µM
same,TGI,HT29 colon,> 100 µM
same,TGI,IGROV1 ovarian,> 100 µM
same,TGI,K-562 leukemia,> 100 µM
same,TGI,KM12 colon,> 100 µM
same,TGI,LOX IMVI melanoma,> 100 µM
same,TGI,M14 melanoma,> 100 µM
same,TGI,MALME-3M melanoma,> 100 µM
same,TGI,MCF7 breast,> 100 µM
same,TGI,MDA-MB-231 breast,> 100 µM
same,TGI,MDA-MB-435,> 100 µM
same,TGI,MDA-N,> 100 µM
same,TGI,MOLT-4 leukemia,> 100 µM
same,TGI,NCI-H226 lung,> 100 µM
same,TGI,NCI-H23 lung,> 100 µM
same,TGI,NCI-H460 lung,> 100 µM
same,TGI,NCI-H522 lung,> 100 µM
same,TGI,NCI/ADR-RES ovarian,> 100 µM
same,TGI,OVCAR-3 ovarian,> 100 µM
same,TGI,OVCAR-4 ovarian,> 100 µM
same,TGI,OVCAR-5 ovarian,> 100 µM
same,TGI,OVCAR-8 ovarian,> 100 µM
same,TGI,PC-3 prostate,> 100 µM
same,TGI,RPMI-8226 leukemia,> 100 µM
same,TGI,SF-268 CNS,> 100 µM
same,TGI,SF-295 CNS,> 100 µM
same,TGI,SF-539 CNS,> 100 µM
same,TGI,SK-MEL-2 melanoma,> 100 µM
same,TGI,SK-MEL-28 melanoma,> 100 µM
same,TGI,SK-MEL-5 melanoma,> 100 µM
same,TGI,SK-OV-3 ovarian,> 100 µM
same,TGI,SN12C renal,> 100 µM
same,TGI,SNB-19 CNS,> 100 µM
same,TGI,SNB-75 CNS,> 100 µM
same,TGI,SR leukemia,> 100 µM
same,TGI,SW-620 colon,> 100 µM
same,TGI,T-47D breast,> 100 µM
same,TGI,TK-10 renal,> 100 µM
same,TGI,U251 CNS,> 100 µM
same,TGI,UACC-257 melanoma,> 100 µM
same,TGI,UACC-62 melanoma,> 100 µM
same,TGI,UO-31 renal,> 100 µM
CC1=Cc2ccc(C)cc2C(=O)C1=O,TGI,786-0 renal,3.81 µM
same,TGI,A498 renal,51.6 µM
same,TGI,A549 NSCLC,50.2 µM
same,TGI,ACHN renal,4.14 µM
same,TGI,BT-549 breast,49.1 µM
same,TGI,CAKI-1 renal,36.3 µM
same,TGI,CCRF-CEM leukemia,1.98 µM
same,TGI,COLO 205 colon,16.3 µM
same,TGI,DU-145 prostate,35.3 µM
same,TGI,EKVX NSCLC,42.3 µM
same,TGI,HCC-2998 colon,30.8 µM
same,TGI,HCT-116 colon,10.8 µM
same,TGI,HCT-15 colon,47.1 µM
same,TGI,HL-60(TB) leukemia,4.13 µM
same,TGI,HOP-62 NSCLC,57 µM
same,TGI,HOP-92 NSCLC,17.6 µM
same,TGI,HS 578T breast,> 65.1 µM
same,TGI,HT29 colon,49.3 µM
same,TGI,IGROV1 ovarian,29.4 µM
same,TGI,K-562 leukemia,> 23.9 µM
same,TGI,KM12 colon,34.5 µM
same,TGI,LOX IMVI melanoma,20.7 µM
same,TGI,M14 melanoma,10.5 µM
same,TGI,MCF7 breast,54.5 µM
same,TGI,MDA-MB-231 breast,59.6 µM
same,TGI,MDA-MB-435,4.27 µM
same,TGI,MDA-N,11.9 µM
same,TGI,MOLT-4 leukemia,6.13 µM
same,TGI,NCI-H226 lung,> 100 µM
same,TGI,NCI-H23 lung,45.3 µM
same,TGI,NCI-H460 lung,41 µM
same,TGI,NCI-H522 lung,4.15 µM
same,TGI,NCI/ADR-RES ovarian,46.8 µM
same,TGI,OVCAR-3 ovarian,49.4 µM
same,TGI,OVCAR-4 ovarian,32 µM
same,TGI,OVCAR-5 ovarian,37.2 µM
same,TGI,OVCAR-8 ovarian,> 73.8 µM
same,TGI,PC-3 prostate,43 µM
same,TGI,RPMI-8226 leukemia,7.34 µM
same,TGI,RXF 393 renal,3.27 µM
same,TGI,SF-268 CNS,27.5 µM
same,TGI,SF-295 CNS,34.7 µM
same,TGI,SF-539 CNS,14.9 µM
same,TGI,SK-MEL-2 melanoma,52.9 µM
same,TGI,SK-MEL-28 melanoma,52.9 µM
same,TGI,SK-MEL-5 melanoma,42.2 µM
same,TGI,SK-OV-3 ovarian,27 µM
same,TGI,SN12C renal,12.8 µM
same,TGI,SNB-19 CNS,45.2 µM
same,TGI,SNB-75 CNS,21.8 µM
same,TGI,SR leukemia,4.38 µM
same,TGI,SW-620 colon,> 100 µM
same,TGI,T-47D breast,5.36 µM
same,TGI,TK-10 renal,3.68 µM
same,TGI,U251 CNS,45.2 µM
same,TGI,UACC-257 melanoma,15.8 µM
same,TGI,UACC-62 melanoma,40.3 µM
same,TGI,UO-31 renal,3.04 µM
